Results as given in patent US20050245527A1, “Nitrogen containing heterocyclic compounds and medicines containing the same” (priority 2002, published 2005).

Key:
sodium channels = assay type: cell-based; details: read-out: IC50 (μM), sodium channel-inhibiting activity; rat fetal cultured hippocampal neurons, SBFI fluorescence in the presence of 4-aminopyridine, 5 minutes after addition, 1 μM tetrodotoxin = 100%
[1] = system: left saphenous nerve of rats (ectopic firing); experiment: Inhibition of ectopic firing; assay type: in vivo; details: Rattus norvegicus, iv; rats with cut left saphenous nerve, urethane anesthesia, compound via catheter in right cervical vein, number of firings in 10 seconds; read-out: Inhibition of ectopic firing (ID50)
Protocol: <Inhibition of Ectopic Firing>
(1) The inhibitory effect on ectopic firing was evaluated by the following method, with reference to Burchiel, K J., Exp. Neurol., 102, 249-253 (1988).
(2) The left saphenous nerve of rats, in which ectopic firing was observed, was cut near the knee joint, and approximately 3 mm was cut off to avoid reattachment of the cut nerve. After more than a week, the left saphenous nerve was exposed under urethane (1 g/kg body weight) anesthesia, and the proximal part up to approximately 1 cm from the cut site was detached from the surrounding tissue. A catheter was inserted in the right cervical vein beforehand for administration of the compound.
(3) The detached nerve was placed on a platinum hook electrode and wetted with liquid paraffin to avoid drying of the nerve. The electrode was connected to a microelectrode amplifier, and the change in potential was recorded from an oscilloscope through an A/D converter onto a computer. The recorded nerve firing was evaluated based on the number of firings in 10 seconds, using analyzing software (AcqKnowledge).

| Compound | IC50 (sodium channels) [µM] | ED50 [1] [mg/kg] |
| --- | --- | --- |
| Cc1ccccc1OCC1(O)CCN(Cc2ncc[nH]c2=O)CC1 [Example 210, 3-[4-Hydroxy-4-(2-methylphenoxymethyl)piperidino]methyl-1H-pyrazin-2-one] | 6 | 0.5 to 1 |
| O=C(O)C(=O)O.O=c1[nH]ccnc1CN1CCC(COc2ccccc2F)C1 (stereo not shown) [Example 132, 3-[3-(2-Fluorophenoxymethyl)pyrrolidino]methyl-1H-pyrazin-2-one oxalate] | 6.2 | 0.5 to 1 |
| C[C@H]1C[C@@H](C(=O)Cc2ccccc2F)CCN1Cc1ncc[nH]c1=O (relative stereo) [Example 415, cis-3-[4-[2-(2-Fluorophenyl)acetyl]-2-methylpiperidino]methyl-1H-pyrazin-2-one] | 4.6 | < 0.5 |
| Cc1ccsc1/C=C/C1CCN(Cc2ncc[nH]c2=O)CC1 [Example 157, (E)-3-[4-[2-(3-Methyl-2-thienyl)vinyl]piperidino]methyl-1H-pyrazin-2-one] | 3.6 | < 0.5 |
| O=c1[nH]ccnc1CN1CCC(COc2cc(F)ccc2F)CC1 [Example 151, 3-[4-(2,5-Difluorophenoxymethyl)piperidino]methyl-1H-pyrazin-2-one] | 2.9 | 0.5 to 1 |
| O=c1[nH]ccnc1CN1CCC(CCc2sccc2F)CC1 [Example 172, 3-[4-[2-(3-Fluoro-2-thienyl)ethyl]piperidino]methyl-1H-pyrazin-2-one] | 5 | 0.5 to 1 |
| Cc1cccc(OCC2CCN(Cc3ncc[nH]c3=O)CC2)c1 [Example 153, 3-[4-(3-Methylphenoxymethyl)piperidino]methyl-1H-pyrazin-2-one] | 4.1 | 0.5 to 1 |
| O=c1[nH]c2ccccc2nc1CN1CCC(COc2ccccc2F)CC1 [Example 204, 3-[4-(2-Fluorophenoxymethyl)piperidino]methyl-1H-quinoxalin-2-one] | 8.1 | 0.5 to 1 |
| Cc1ccccc1CC(=O)C1CCN(Cc2ncc[nH]c2=O)CC1 [Example 184, 3-[4-[2-(2-Methylphenyl)acetyl]piperidino]methyl-1H-pyrazin-2-one] | 2.9 | < 0.5 |
| O=c1[nH]cccc1CN1CCC(F)(COc2ccccc2F)CC1 [Example 124, 3-[4-Fluoro-4-(2-fluorophenoxymethyl)piperidino]methyl-1H-pyridin-2-one] | 7.8 | < 0.5 |
| O=c1[nH]ccnc1CN1CCC(c2nc(-c3ccccc3F)no2)CC1 [Example 187, 3-[4-[3-(2-Fluorophenyl)-1,2,4-oxadiazol-5-yl]piperidino]methyl-1H-pyrazin-2-one] | 3.5 | 0.5 to 1 |
| COc1ccccc1CCC1CCN(Cc2ncc[nH]c2=O)C1.O=C(O)C(=O)O (stereo not shown) [Example 135, 3-[3-[2-(2-Methoxyphenyl)ethyl]pyrrolidino]methyl-1H-pyrazin-2-one oxalate] | 4 | < 0.5 |
| O=C(c1ccccc1F)N(C(=O)c1ccccc1F)C1(O)CCN(Cc2ncc[nH]c2=O)CC1 [Example 214, 2-Fluoro-N-(2-fluorobenzoyl)-N-[4-hydroxy-1-(3-oxo-3,4-dihydro-2-pyrazinylmethyl)piperidin-4-yl]benzamide] | 8.7 | 0.5 to 1 |
| Cc1ccc(-c2ccccc2)n1CC1(O)CCN(Cc2ncc[nH]c2=O)CC1 [Example 212, 3-[4-Hydroxy-4-(2-methyl-5-phenylpyrrol-1-yl)methyl-piperidino]methyl-1H-pyrazin-2-one] | 6.1 | 0.5 to 1 |
| O=c1[nH]cccc1CN1CCC(O)(C#Cc2ccccc2F)CC1 [Example 258, 3-[4-Hydroxy-4-[(2-fluorophenyl)ethynyl]piperidino]methyl-1H-pyridin-2-one] | 4.2 | < 0.5 |
| O=C(Cc1cccc(F)c1F)C1CCN(Cc2ncc[nH]c2=O)CC1 [Example 200, 3-[4-[2-(2,3-Difluorophenyl)acetyl]piperidino]methyl-1H-pyrazin-2-one] | 1.6 | 0.5 to 1 |
| Cc1ccccc1OCC1(CCc2ccccc2F)CCN(Cc2ncc[nH]c2=O)CC1 [Example 225, 3-[4-[2-(2-Fluorophenyl)ethyl]-4-(2-methylphenoxymethyl)piperidino]methyl-1H-pyrazin-2-one] | 1.6 | 0.5 to 1 |
| O=c1[nH]ccnc1CN1CCC(CCc2ccccc2F)CC1 [Example 177, 3-[4-[2-(2-Fluorophenyl)ethyl]piperidino]methyl-1H-pyrazin-2-one] | 4.5 | < 0.5 |
| COc1ccccc1OCC1CCN(Cc2nc3ccccc3[nH]c2=O)CC1 [Example 205, 3-[4-(2-Methoxyphenoxymethyl)piperidino]methyl-1H-quinoxalin-2-one] | 2.6 | 0.5 to 1 |

| Compound | IC50 (sodium channels) [µM] | ED50 [1] [mg/kg] |
| --- | --- | --- |
| O=c1[nH]ccnc1CN1CCC(COc2ccccc2F)CC1 [Example 142, 3-[4-(2-Fluorophenoxymethyl)piperidino]methyl-1H-pyrazin-2-one] | 4.2 | < 0.5 |
| O=c1cncc(CCN2CCC(COc3ccccc3Cl)CC2)[nH]1 [Example 235, 6-[2-[4-(2-Chlorophenoxymethyl)piperidino]ethyl]-1H-pyrazin-2-one] | 5 | < 0.5 |
| O=c1[nH]cccc1CN1CC2CCCC(C1)C2/C=C/c1ccccc1F (stereo not drawn) [Example 129, anti-(E)-3-[9-[2-(2-Fluorophenyl)vinyl]-3-azabicyclo[3.3.1]non-3-yl]methyl-1H-pyridin-2-one] | 2.1 | 0.5 to 1 |
| Cc1ccccc1OCC1CCN(Cc2ncc[nH]c2=O)CC1 [Example 147, 3-[4-(2-Methylphenoxymethyl)piperidino]methyl-1H-pyrazin-2-one] | 2.5 | < 0.5 |
| Cc1ccccc1CCC1(O)CCN(Cc2ncc[nH]c2=O)CC1 [Example 222, 3-[4-Hydroxy-4-[2-(2-methylphenyl)ethyl]piperidino]methyl-1H-pyrazin-2-one] | 2.5 | 0.5 to 1 |
| Cc1cccc(CC(=O)C2CCN(Cc3ncc[nH]c3=O)CC2)c1 [Example 192, 3-[4-[2-(3-Methylphenyl)acetyl]piperidino]methyl-1H-pyrazin-2-one] | 3.8 | 0.5 to 1 |
| O=C(Cc1c(F)cccc1F)C1CCN(Cc2ncc[nH]c2=O)CC1 [Example 195, 3-[4-[2-(2,6-Difluorophenyl)acetyl]piperidino]methyl-1H-pyrazin-2-one] | 2 | 0.5 to 1 |
| O=c1[nH]cc(Cl)cc1CN1CCC(O)(COc2ccccc2F)CC1 [Example 254, 5-Chloro-3-[4-hydroxy-4-(2-fluorophenoxymethyl)piperidino]methyl-1H-pyridin-2-one] | 8.9 | 0.5 to 1 |
| CSc1ccccc1CC(=O)C1CCN(Cc2ncc[nH]c2=O)CC1 [Example 343, 3-[4-[2-[2-(Methylthio)phenyl]acetyl]piperidino]methyl-1H-pyrazin-2-one] | 3.5 | < 0.5 |
| Cc1ccccc1OCC1CCCN(Cc2ncc[nH]c2=O)C1 (stereo not shown) [Example 154, 3-[3-(2-Methylphenoxymethyl)piperidino]methyl-1H-pyrazin-2-one] | 3.1 | 0.5 to 1 |
| O=C(Cc1ccccc1F)C1CCCN(Cc2ncc[nH]c2=O)C1 (stereo not shown) [Example 208, 3-[3-[2-(2-Fluorophenyl)acetyl]piperidino]methyl-1H-pyrazin-2-one] | 5.5 | 0.5 to 1 |
| CC(c1ncc[nH]c1=O)N1CCC(C(=O)Cc2ccccc2F)CC1 (stereo not shown) [Example 350, 3-[1-[4-[2-(2-Fluorophenyl)acetyl]piperidino]ethyl]-1H-pyrazin-2-one] | 6 | < 0.5 |
| CCOc1ccccc1CC(=O)C1CCN(Cc2ncc[nH]c2=O)CC1 [Example 347, 3-[4-[2-(2-Ethoxyphenyl)acetyl]piperidino]methyl-1H-pyrazin-2-one] | 3 | < 0.5 |
| O=c1[nH]ccnc1CN1CCC(COc2ccccc2C(F)(F)F)CC1 [Example 164, 3-[4-[2-(Trifluoromethyl)phenoxymethyl]piperidino]methyl-1H-pyrazin-2-one] | 3.3 | < 0.5 |
| O=c1[nH]cccc1CN1CCC(O)(COc2ccccc2F)CC1 [Example 253, 3-[4-Hydroxy-4-(2-fluorophenoxymethyl)piperidino]methyl-1H-pyridin-2-one] | 9.2 | < 0.5 |
| O=c1[nH]ccnc1CN1CCC(COCc2ccccc2F)CC1 [Example 160, 3-[4-(2-Fluorobenzyloxymethyl)piperidino]methyl-1H-pyrazin-2-one] | 3.5 | 0.5 to 1 |
| O=c1[nH]ccnc1CN1CCC(c2nc(-c3cccc(F)c3)no2)CC1 [Example 188, 3-[4-[3-(3-Fluorophenyl)-1,2,4-oxadiazol-5-yl]piperidino]methyl-1H-pyrazin-2-one] | 5 | 0.5 to 1 |
| Cc1ccccc1OCC1CCN(Cc2ncc[nH]c2=O)C1.O=C(O)C(=O)O (stereo not shown) [Example 136, 3-[3-(2-Methylphenoxymethyl)pyrrolidino]methyl-1H-pyrazin-2-one oxalate] | 4.7 | 0.5 to 1 |
| COc1ccccc1OCC1CCN(Cc2ncc[nH]c2=O)CC1 [Example 143, 3-[4-(2-Methoxyphenoxymethyl)piperidino]methyl-1H-pyrazin-2-one] | 3.1 | < 0.5 |
